Measurements from PMC7750190, “GapB Is Involved in Biofilm Formation Dependent on LrgAB but Not the SinI/R System in Bacillus cereus 0-9” (Frontiers in Microbiology, 2020).

Target: T1, GapB (Bacillus cereus, UniProt Q817G8)
T1 construct: gene BC_4583; full gapB gene in pET28a, GapB-His6, E. coli BL21 (DE3), Ni-IMAC and Superdex 200, 42 kDa by SDS-PAGE
Assay: NAD(P)H production at […] nm
Assay type: biochemical
Details: 20 mM glyceraldehyde-3-phosphate, 50 mM Na2HPO4, 5 mM EDTA, pH 7.5, 37°C, 30 min

T1 sequence (Q817G8 entry or part of it): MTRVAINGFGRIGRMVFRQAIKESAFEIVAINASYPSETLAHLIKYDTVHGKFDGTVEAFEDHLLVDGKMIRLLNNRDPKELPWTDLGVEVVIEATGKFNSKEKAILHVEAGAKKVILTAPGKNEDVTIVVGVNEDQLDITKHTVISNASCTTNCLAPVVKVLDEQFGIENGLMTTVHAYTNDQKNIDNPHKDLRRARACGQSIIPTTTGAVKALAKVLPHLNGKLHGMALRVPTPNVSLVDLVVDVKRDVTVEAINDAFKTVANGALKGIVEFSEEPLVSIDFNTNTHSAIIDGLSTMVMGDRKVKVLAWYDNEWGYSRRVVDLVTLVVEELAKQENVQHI

Row | Compound | NAD(P)H production at 340 nm (10 mM NAD+) | NAD(P)H production at 340 nm (2 mM NADP+)
1 | NC(=O)c1ccc[n+]([C@@H]2O[C@H](COP(=O)(O)OP(=O)(O)OC[C@H]3O[C@@H](n4cnc5c(N)ncnc54)[C@H](O)[C@@H]3O)[C@@H](O)[C@H]2O)c1 [NAD^+] | GapB protein has enzyme activities with either NAD^+ or NADP^+ as a cofactor | 
2 | NC(=O)c1ccc[n+]([C@@H]2O[C@H](COP(=O)(O)OP(=O)(O)OC[C@H]3O[C@@H](n4cnc5c(N)ncnc54)[C@H](OP(=O)(O)O)[C@@H]3O)[C@@H](O)[C@H]2O)c1 [NADP^+] |  | GapB protein has enzyme activities with either NAD^+ or NADP^+ as a cofactor
